What was measured:
[1] = system: Daudi B cell lymphoma; assay: Survival in Daudi B cell lymphoma xenograft model, combination with rituximab (Example 1); format: in vivo, mice; details: after about 35 days; agonist 0.3 mg/kg, days 14 and 17
Experimental: At day 0, SCID mice were intravenously injected with 1×10^7 Daudi cells. The mice were divided into four groups. On days 14 and 17 post-Daudi cell injection, the groups were treated by injection as follows: Group 1: isotype control antibody, Group 2: 40 mg/kg IP rituximab, Group 3: 0.3 mg/kg mono(methoxyPEG-N-butanamide)40 kD interleukin-15 (a long-acting IL-15 receptor agonist), Group 4: 40 mg/kg IP rituximab and 0.3 mg/kg SC mono(methoxyPEG-N-butanamide)40 kD interleukin-15 (combination).
The survival rate was determined by measuring the onset of hind limb paralysis as a surrogate parameter.

[2] = system: CD56+ human NK cells; assay: Human NK cell proliferation in CFSE labeled PBMCs (Example 5); format: cell-based; details: 5 days; Conjugate 1 100 ng/ml; plate coated with hIgG 0.1 mg/ml
Experimental: NK cell proliferation within a human peripheral blood mononuclear cell (PBMCs) labeled with CFSE preparation was induced in vitro. The CFSE labeled PBMCs were incubated for 5 days in vitro in the presence of (i) mono(methoxyPEG-N-butanamide)40 kD interleukin-15 (Conjugate 1) at a concentration of 100 ng/ml; (ii) on cell culture plastic that had been prior coated overnight with human total immunoglobulin G (hIgG) solution at a concentration of 0.1 mg/ml (iii) on cell culture plastic that had been prior coated overnight with human total immunoglobulin G (hIgG) solution at a concentration of 0.1 mg/ml and in the presence of Conjugate 1 at a concentration of 100 ng/ml; or (iv) on regular cell culture plastic. After the incubation period, cell proliferation as indicated by the decrease of CFSE in the cells that had undergone cell doublings was measured with flow cytometry (FIGS. 8A-8D) measuring CFSE levels in CD56+ human NK cells within the PBMCs preparation in each of the four incubation conditions.

[3] = system: human PBMCs; assay: Secreted granzyme B in PBMC culture media by ELISA (Example 6); format: cell-based; details: overnight, Conjugate 1 1 μg/ml, plate coated with hIgG 0.1 mg/ml
Experimental: Functional activation of human NK cells within a human peripheral blood mononuclear cells (PBMCs) preparation was induced in vitro. PBMCs from two donors were incubated overnight in the presence of (i) mono(methoxyPEG-N-butanamide)40 kD interleukin-15 (Conjugate 1) at a concentration of 1 μg/ml; (ii) on cell culture plastic that had been prior coated overnight with human total immunoglobulin G (hIgG) solution at a concentration of 0.1 mg/ml (iii) on cell culture plastic that had been prior coated overnight with human total immunoglobulin G (hIgG) solution at a concentration of 0.1 mg/ml and in the presence of Conjugate 1 at a concentration of 1 μg/ml; or (iv) on regular cell culture plastic.
After the incubation period, NK cell activation was measured with flow cytometry by measuring the increase of median fluorescence intensity (MFI) signal of CD69 (FIG. 9A) and CD107a (FIG. 9B) detecting antibodies on the surface of CD56+ human NK cells within the PBMCs. Functional activation of NK cells was assessed by calculating the fold-change in MFI when comparing control condition where the cells were exposed to neither hIgG nor Conjugate 1. […] Secreted granzyme B concentration also indicative of NK cell activation in the culture media at the end of the experiment was measured by ELISA (FIG. 9C).

[4] = system: CD56+ human NK cells; assay: Dose response of human NK cell proliferation in CFSE labeled PBMCs (Example 8); format: cell-based; details: 5 days
Experimental: Human peripheral blood mononuclear cell (PBMCs) labeled with a CFSE preparation were incubated for 5 days in vitro in the presence of increasing doses of rhIL-15 (dose range 1 ng/ml-100 ng/ml, 5 point, 3 fold dilutions) or a long-acting IL-15 receptor agonist (mono(mPEG-butanamide)IL-15) (dose range 10 ng/ml-1000 ng/ml, 5 point, 3 fold dilutions). After the incubation period, cell proliferation as indicated by the decrease of CFSE in the cells that had undergone cell doublings was measured with flow cytometry measuring CFSE levels in CD56+ human NK cells within the PBMCs preparation.

[5] = system: human B cell lymphoma (Daudi) cells; assay: ADCC of rituximab-coated target cells by primed human NK cells (Example 12); format: cell-based; details: NK cells primed with 300 ng/mL overnight; rituximab 10 ng/mL; E:T 2:1, 3 hr
Experimental: Human NK cells were magnetically sorted from normal donor PBMCs using negative selection. NK cells were seeded in a 96-well U-bottom plate at a density of 80,000 cells/well (FIG. 15A) OR 400,000 cells/well (FIG. 15B). NK cells were stimulated with 300 ng/mL of a long-acting IL-15 receptor agonist (mono(mPEG-butanamide)IL-15) (+) or left unstimulated (−) in complete RPMI-1640 media supplemented with 10% fetal bovine serum (FBS) and 1% antibiotic/antimycotic overnight at 37° C. in 5% CO2.
Alternatively, the human B cell lymphoma (Daudi) cells were washed in PBS and stained with 0.3 μM CFSE for 5 min at 37° C. The rituximab-coated (+10 ng/mL) CFSE-labeled tumor (target cells) cells were concurrently co-cultured with the NK cells (effector cells) in an E:T ratio of 2:1 for 3 hr at 37° C. in 5% CO2. Following incubation, cells were washed in flow staining buffer, Fc-blocked for 15 min at 4° C., and surface-stained (CD45, CD56, CD3-fluorescently conjugated antibodies). The cells were washed in PBS and incubated in 7-aminoactinomycin (7-AAD) viability stain for 30 minutes at 4° C. before acquiring for flow cytometric analysis using a Fortessa (BD). The percentage of 7-AAD+ CFSE+ target cells from total cell population is the percentage for dead tumor cells.

[6] = system: H1975 lung carcinoma cells; assay: Tumor growth in H1975 lung tumor model (Example 17); format: in vivo, mice; details: day 27 after treatment initiation; cetuximab 0.25 mg/kg IP x3; Compound 1 0.3 mg/kg IV x3
Experimental: Delay in loss of tumor growth control was evaluated on day 27 after treatment initiation.

[7] = system: HCT-116 colorectal carcinoma cells; assay: Tumor growth inhibition and delay in HCT-116 colorectal carcinoma xenograft model (Example 19); format: in vivo, mice
Experimental: Tumor growth inhibition was evaluated on day 19 after treatment initiation.
The tumor growth delay was evaluated by measuring tumor volume quadrupling time (TVQT) from baseline tumor volume on treatment initiation day.

[8] = system: SKOV-3 cells; assay: Tumor growth inhibition in SKOV-3 ovarian carcinoma model (Example 21); format: in vivo, mice; details: 35 days after treatment initiation; trastuzumab 13.5 mg/kg IV x6; Compound 1 0.3 mg/kg IV x3
Experimental: Tumor growth inhibition in inoculated mice was measured 35 days after treatment initiation.

**Q.** Which survival [1] does the source give for “mono(methoxyPEG-N-butanamide)40 kD interleukin-15 [Conjugate 1]” here?
**A.** 0%

**Q.** And the “% CD56+ NK cells proliferating” value [2]?
**A.** 49.7%

**Q.** And the “Granzyme B concentration” value [3]?
**A.** 56 pg/mL

**Q.** What about the “Granzyme B concentration fold-change relative to no stimulation control” value [3] of the same substance?
**A.** 4.1 fold

**Q.** What about the “EC50 (ng/ml)-% proliferation” value [4] of the same substance?
**A.** 39.04 ng/mL

**Q.** And the Emax-% proliferation [4]?
**A.** 71.6%

**Q.** And the “potency in inducing human NK cell proliferation, fold less than rhIL-15” value [4]?
**A.** approximately 17 fold

**Q.** What about the “ADCC, % 7-AAD+ target cells” value [5] of the same substance?
**A.** enhance ADCC

**Q.** What about the tumor growth control [6] of the same substance?
**A.** no tumor growth inhibition

**Q.** What about the tumor growth inhibition ([7]; day 19 after treatment initiation, cetuximab 40 mg/kg IP x6, Compound 1 0.3 mg/kg IV x3) of the same substance?
**A.** 31%

**Q.** What about the “tumor growth delay (TVQT)” value ([7]; tumor volume quadrupling time from baseline) of the same substance?
**A.** 26%

**Q.** What about the tumor growth inhibition [8] of the same substance?
**A.** no tumor growth inhibition
